Tested on: multiple drug-resistant Mycobacterium tuberculosis
Test: Antimicrobial activity
Format: cell-based
Settings: range 0-20 μg/ml

| Substance | activity versus multiple drug-resistant Mycobacterium tuberculosis |
| --- | --- |
| 36-1: synthetic rabbit RNIP-derived fragment, amino acids 135-166 of SEQ ID NO:4 (GLRKRLRKFRNKIKEKLKKIGQKIQGLLPKLA) | inactive |
| RNIP: reactive nitrogen inhibitory protein, amino acids 135-171 of SEQ ID NO:4 (rabbit CAP18 C-terminus); purified from granulocytes or synthetic (#197) (GLRKRLRKFRNKIKEKLKKIGQKIQGLLPKLAPRTDY) | inactive |

— patent US5618675A, “Methods and compositions for detecting lipopolysaccharides using CAP18 fragments” (Panorama Research, Inc., dated 1997)
